Results: patent US20080300243A1, “Amide Derivatives as Ion-Channel Ligands and Pharmaceutical Compositions and Methods of Using the Same” (priority 2005, published 2008)

Key:
VR1 [1] = biological target: T1, VR1 (Homo sapiens, UniProt Q8NER1); experiment: Acid stimulation assay (FDSS 6000); assay type: cell-based; design: host or cells: unspecified cell suspension; conditions: final assay buffer pH5.8, 15 min pre-incubation
Method: The Acid-induced changes in the intracellular calcium concentration were monitored using FDSS 6000 (Hamamatsu Photonics, Japan), a fluorometric imaging system. The cell suspension in resting buffer (HBSS supplemented with […], pH 7.4) was pre-incubated with varying concentrations of the test compounds or resting buffer (buffer control) for 15 minutes at room temperature under dark conditions. The cells were automatically added the stimulating solution (HBSS supplemented with MES, final assay buffer pH5.8) by the FDSS 6000.
Target sequence in this assay (Q8NER1 whole entry, species assumed): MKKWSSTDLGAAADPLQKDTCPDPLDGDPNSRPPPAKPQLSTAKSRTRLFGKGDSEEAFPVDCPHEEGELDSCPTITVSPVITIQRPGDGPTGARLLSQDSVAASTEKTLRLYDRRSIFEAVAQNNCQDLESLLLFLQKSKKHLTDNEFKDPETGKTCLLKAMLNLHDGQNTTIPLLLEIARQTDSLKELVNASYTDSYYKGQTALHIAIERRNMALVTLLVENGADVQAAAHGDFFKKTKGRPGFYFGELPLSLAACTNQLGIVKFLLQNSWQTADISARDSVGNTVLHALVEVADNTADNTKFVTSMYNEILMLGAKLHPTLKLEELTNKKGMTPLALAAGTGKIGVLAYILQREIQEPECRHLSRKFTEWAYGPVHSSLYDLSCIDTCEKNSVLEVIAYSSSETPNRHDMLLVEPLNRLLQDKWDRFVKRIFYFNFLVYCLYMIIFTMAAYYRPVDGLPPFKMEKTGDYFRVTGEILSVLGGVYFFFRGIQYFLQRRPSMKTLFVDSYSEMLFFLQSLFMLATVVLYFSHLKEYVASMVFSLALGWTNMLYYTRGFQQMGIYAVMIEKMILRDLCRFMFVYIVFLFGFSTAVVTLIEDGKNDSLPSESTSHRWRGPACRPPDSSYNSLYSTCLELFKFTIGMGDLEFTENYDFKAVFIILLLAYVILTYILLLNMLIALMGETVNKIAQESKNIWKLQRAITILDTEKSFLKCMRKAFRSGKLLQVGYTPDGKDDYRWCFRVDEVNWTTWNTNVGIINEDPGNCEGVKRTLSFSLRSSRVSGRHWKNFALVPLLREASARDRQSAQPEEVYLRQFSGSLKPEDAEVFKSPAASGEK

[2] = Half-life in human liver microsomes (HLM); assay type: in vitro ADME; conditions: human, human liver microsomes (HLM, HL101), pH 7.4; 1 μM compound, 0.78 mg/mL HLM, 37° C., NADPH
Method: Test compounds (1 μM) were incubated with 3.3 mM MgCl2 and 0.78 mg/mL HLM (HL101) in 100 mM potassium phosphate buffer (pH 7.4) at 37° C. on the 96-deep well plate. The reaction mixture was split into two groups, a non-P450 and a P450 group. NADPH was only added to the reaction mixture of the P450 group. An aliquot of samples of P450 group was collected at 0, 10, 30, and 60 min time point, where 0 min time point indicated the time when NADPH was added into the reaction mixture of P450 group. An aliquot of samples of non-P450 group was collected at −10 and 65 min time point. Collected aliquots were extracted with acetonitrile solution containing an internal standard. The precipitated protein was spun down in centrifuge (2000 rpm, 15 min). The compound concentration in supernatant was measured by LC/MS/MS system.
The half-life value was obtained by plotting the natural logarithm of the peak area ratio of compounds/internal standard versus time. The slope of the line of best fit through the points yields the rate of metabolism (k). This was converted to a half-life value using following equations:
Exemplary compounds of the invention were tested (1 μM), and were incubated with 3.3 mM MgCl2 and 0.78 mg/mL HLM (HL101) in 100 mM potassium phosphate buffer (pH 7.4) at 37° C. on the 96-deep well plate. The reaction mixture was split into two groups, a non-P450 and a P450 group. NADPH was only added to the reaction mixture of the P450 group. An aliquot of samples of the P450 group was collected at 0, 10, 30, and 60 minute time points, where the 0 minute time point indicated the time when NADPH was added into the reaction mixture of the P450 group. An aliquot of samples of the non-P450 group was collected at −10 and 65 minute time points. Collected aliquots were extracted with an acetonitrile solution containing an internal standard. The precipitated protein was spun down in a centrifuge (2000 rpm, 15 rain). The compound concentration in supernatant was measured by LC/MS/MS system. The half-life value (T1/2) was obtained by plotting the natural logarithm of the peak area ratio of compounds/internal standard versus time. The slope of the line of best fit through the points yields the rate of metabolism (k). This was converted to a half-life value using following equations: Half-life=ln 2/k.

VR1 [3] = biological target: T1, VR1; experiment: Calcium uptake assay, low pH (proton) stimulus; assay type: cell-based; design: expressed in transfected cells; host or cells: T-REx HEK 293 (Invitrogen), pcDNA5/TO vector; conditions: HEK293; 0.3 μM compound; low pH agonist; HEK 293 cells expressing hVR1; read-out: Low pH % Inhib. @ 0.3 μM
Target sequence in this assay (Q8NER1 whole entry): as the sequence (Q8NER1 whole entry, species assumed) above

VR1 [4] = biological target: T1, VR1; experiment: Calcium uptake assay, capsaicin stimulus; assay type: cell-based; design: expressed in transfected cells; host or cells: T-REx HEK 293 (Invitrogen), pcDNA5/TO vector; conditions: 3 nM compound
Target sequence in this assay (Q8NER1 whole entry): as the sequence (Q8NER1 whole entry, species assumed) above

Structure (SMILES) | IC50 (VR1 [1]) | half-life at 1 μM [2] | inhibition at 0.3 µM (VR1 [3]) | inhibition of the Capsaicin induced intracellular calcium response (FIGS. 2-6) (VR1 [4])
O=C(Nc1cccc2cnccc12)c1ccc(/C=C/C(F)(F)F)cc1 [Compound 35] | 2.5 nM | 29.4 min | 106% | –
O=C(Nc1cccc2cnccc12)c1ccc(C#CC(F)(F)F)cc1 [Compound 45] | 1 nM | 1.2 min | 99% | significant inhibition
C/C(=C\C(F)(F)F)c1ccc(C(=O)Nc2ccc3c(c2)OCCN3)cc1 [Compound 96] | 3 nM | 20.4 min | 99% | significant inhibition
O=C(Nc1ccc2c(c1)OC[C@@H](CO)O2)c1ccc(/C=C/C(F)(F)F)cc1 [Compound 107] | 5 nM | – | 116% | –
O=C(Nc1ccc2c(c1)OCC(CO)N2)c1ccc(/C=C/C(F)(F)F)cc1 (stereo not shown) [Compound 111] | 5 nM | 45 min | 116% | –
Cc1cc(/C=C/C(F)(F)F)ccc1C(=O)Nc1ccc2c(c1)OCCN2 [Compound 118] | 5 nM | 61.8 min | 103% | –
Cc1cc(C#CC2CC2)ccc1C(=O)Nc1ccc2c(c1)OCC(CO)N2 (stereo not shown) [Compound 124] | – | 60.6 min | 112% | –
Cc1cc(C#CC2CCCC2)ccc1C(=O)Nc1ccc2c(c1)OCC(CO)N2 (stereo not shown) [Compound 125] | – | 40.2 min | 112% | –
O=C(Nc1ccc2c(c1)OCC(CO)N2)c1ccc(C#CC2CCCC2)cc1F (stereo not shown) [Compound 126] | – | 112 min | 96% | –
O=C(Nc1ccc2c(c1)OCC(CO)N2)c1ccc(C#CC2CC2)cc1F (stereo not shown) [Compound 127] | 5 nM | 82.2 min | 100% | –
O=C(Nc1ccc2c(c1)OCC(CO)N2)c1c(F)cc(C#CC2CC2)cc1F (stereo not shown) [Compound 129] | – | 103 min | 104% | –
Cc1cc(/C=C/C(F)(F)F)ccc1C(=O)Nc1ccc2c(c1)OCC(CO)N2 (stereo not shown) [Compound 131] | – | 118 min | 104% | –
O=C(Nc1ccc2c(c1)OCCN2)c1ccc(/C=C/C(F)(F)F)cc1F [Compound 134] | – | 93.6 min | 108% | –
CC(C)(C)C#Cc1ccc(C(=O)Nc2ccc3c(c2)OCC(CO)N3)c(F)c1 (stereo not shown) [Compound 138] | 3 nM | – | 107% | –
O=C(Nc1ccc2c(c1)OCC(CO)N2)c1ccc(/C=C/C(F)(F)F)cc1F (stereo not shown) [Compound 144] | – | 70.8 min | 105% | –
O=C(Nc1ccc2c(c1)OCC(CO)N2)c1ccc(/C=C/C(F)(F)F)cc1Cl (stereo not shown) [Compound 157] | – | 82.2 min | 107% | –
CC(C)(C)C#Cc1ccc(C(=O)Nc2ccc3c(c2)OCC(CO)N3)c(Cl)c1 (stereo not shown) [Compound 158] | – | 85.8 min | 107% | –
O=C(Nc1cccc2cnccc12)c1ccc(/C=C/C(F)(F)F)cc1F [Compound 160] | – | 34.8 min | 96% | –
Cc1nc2cc(NC(=O)c3ccc(C#CC(C)(C)C)cc3C)ccc2s1 [Compound 162] | – | 85.8 min | 89% | –
Cc1cc(C#CC(C)(C)C)ccc1C(=O)Nc1cccc2cnccc12 [Compound 163] | – | 69.6 min | 98% | –

Structure (SMILES) | IC50 (VR1 [1]) | half-life at 1 μM [2] | inhibition at 0.3 µM (VR1 [3]) | inhibition of the Capsaicin induced intracellular calcium response (FIGS. 2-6) (VR1 [4])
CC(C)(C)C#Cc1ccc(C(=O)Nc2cnc3ccccc3c2)c(Cl)c1 [Compound 164] | – | 122 min | 105% | –
CC(C)(C)C#Cc1cc(F)c(C(=O)Nc2cccc3cnccc23)c(F)c1 [Compound 166] | 8 nM | – | 99% | –
Cc1cc(C#CC(C)(C)C)ccc1C(=O)Nc1ccc2c(c1)OCC(CO)N2 (stereo not shown) [Compound 167] | 7 nM | – | 107% | significant inhibition
CC(C)(C)C#Cc1ccc(C(=O)Nc2ccc3c(c2)OC[C@@H](CO)N3)c(F)c1 [Compound 170] | 3 nM | – | 108% | –
CC(C)(C)C#Cc1ccc(C(=O)Nc2ccc3c(c2)OC[C@H](CO)N3)c(F)c1 [Compound 172] | 3 nM | 74.4 min | 109% | –
COc1c(C#CC(C)(C)C)ccc(C(=O)Nc2cccc3cnccc23)c1F [Compound 176] | 4 nM | – | 89% | –
Cc1cc(C#CC(C)(C)C)ccc1C(=O)Nc1cnc2ccccc2c1 [Compound 181] | – | 61.2 min | 102% | –
Cc1cc(C#CC(C)(C)C)ccc1C(=O)Nc1ccc2c(c1)OC[C@@H](CO)N2 [Compound 184] | – | 38.4 min | 102% | –
Cc1cc(/C=C/C(F)(F)F)ccc1C(=O)Nc1cnc2ccccc2c1 [Compound 187] | 3 nM | 568 min | 98% | significant inhibition
Cc1nc2cc(NC(=O)c3ccc(/C=C/C(F)(F)F)cc3C)ccc2s1 [Compound 188] | – | 80.4 min | 83% | –
O=C(Nc1ccc2c(c1)OC[C@H](CO)N2)c1ccc(/C=C/C(F)(F)F)cc1F [Compound 193] | 3 nM | – | 103% | –
Cc1cc(C#CC(C)(C)C)ccc1C(=O)Nc1ccc2c(c1)OC[C@H](CO)N2 [Compound 194] | 3 nM | – | 102% | –
Cc1cc(/C=C/C(F)(F)F)ccc1C(=O)Nc1ccc2c(c1)OC[C@H](CO)N2 [Compound 195] | 3 nM | – | 60% | –
Cc1cc(C#CC(C)(C)C)ccc1C(=O)Nc1ccc2sc(CO)nc2c1 [Compound 197, N-(2-(hydroxymethyl)benzo[d]thiazol-5-yl)-2-methyl-4-(3,3-dimethylbut-1-ynyl)benzamide] | 3 nM | – | 107% | –
Cc1cc(C#CC(C)(C)C)ccc1C(=O)Nc1ccc2scnc2c1 [Compound 198, N-(benzo[d]thiazol-5-yl)-2-methyl-4-(3,3-dimethylbut-1-ynyl)benzamide] | 3 nM | – | 101% | –
Cc1cc(/C=C/C(C)(C)C)ccc1C(=O)Nc1cnc2ccccc2c1 [Compound 210] | 3 nM | – | 106% | –
Cc1cc(C#CC(C)(C)C)ccc1C(=O)Nc1ccc2[nH]cnc2c1 [Compound 214] | 3 nM | – | 74% | –
Cc1cc(/C=C/C(F)(F)F)ccc1C(=O)Nc1ccc2cc(CO)cnc2c1 [Compound 228] | – | 76.2 min | 100% | –
Cc1cc(/C=C/C(F)(F)F)ccc1C(=O)Nc1cnc2c(c1)OCC(CO)N2 (stereo not shown) [Compound 233] | 3 nM | – | 100% | significant inhibition
